Test: Effect of autoclave sterilization on final drug concentration in silicone sleeve
Type: physicochemical
Conditions: rifampin in silicone sleeve, starting concentration about 0.0738 wt %, autoclave about 30 minutes
Protocol: FIG. 18 illustrates the effect of sterilization on the final drug concentration, showing the degradation rate versus autoclave time, for example, with a starting concentration of about 0.0738 wt % rifampin in the silicone and running the autoclave about 30 minutes will result in a final concentration of about 0.054 wt % rifampin in the silicone sleeve.
The term “weight percent” or “wt %” means the ratio of the drug weight to the weight of the biocompatible matrix, e.g., the silicone after sterilization, for example, an initial concentration of rifampin of about 0.0738 wt % with about a 30 minute autoclave time will result in a final wt % of about 0.054 in the sterilized product. Other than where expressly indicated, all numbers expressing amounts of materials, concentrations, quantified properties of materials, and so forth, stated in the specification and claims are to be understood as being modified in all instances by the term “about” or “approximately”.

final concentration after autoclave sterilization: about 0.054 wt %
SMILES: CO[C@H]1/C=C/O[C@@]2(C)Oc3c(C)c(O)c4c(O)c(c(/C=N/N5CCN(C)CC5)c(O)c4c3C2=O)NC(=O)/C(C)=C\C=C\[C@H](C)[C@H](O)[C@@H](C)[C@@H](O)[C@@H](C)[C@H](OC(C)=O)[C@@H]1C [rifampin]

From patent publication US20100247600A1, “THERAPEUTIC DRUG ELUTING IMPLANT COVER AND METHOD OF MAKING THE SAME” (Warsaw Orthopedic, Inc., priority 2009, published 2010)
